Where two headings read alike, the source gives them in different places.
Columns and labels:
[1] = biological target: SARS-CoV-2 3CL protease (Severe acute respiratory syndrome coronavirus 2, UniProt P0DTD1); experiment: Inhibitory activity test against SARS-CoV-2 3CL proteases; format: biochemical
[2] = tested on: SARS-CoV-2; experiment: Inhibitory activity of cytopathic effect (CPE) in HEK293T/ACE2-TMPRSS2 cells; format: cell-based; details: Severe acute respiratory syndrome coronavirus 2, HEK-293T, 72 h
[3] = read-out: IC50 (50% SARS-CoV-2 3CL protease inhibitory concentration)
[4] = HEK293T/ACE2-TMPRSS2 cells, cultured 3 days, CellTiter-Glo 2.0 luminescence, read-out: EC50 (50% SARS-CoV-2 infected cell death inhibitory concentration)
[5] = 50% SARS-CoV-2 infected cell death inhibitory concentration, HEK293T/ACE2-TMPRSS2 cells, CellTiter-Glo 2.0 after 3 days culture, read-out: EC50
[6] = IC50 (50% SARS-CoV-2 3CL protease inhibitory concentration)
[7] = read-out: EC50 (50% SARS-CoV-2 infected cell death inhibitory concentration)

Compound | IC50 [1, 3] [nM] | EC50 [2, 4] [nM] | further results
COc1nc(N2CC[C@@H](O)C2)cc2c1c(=O)n(-c1cnc3ccc(C#N)cn13)c(=O)n2-c1ccc(F)c(Cl)c1 [Compound I-0992] | < 100 | < 100 | –
COc1nc(N2C[C@@H]3C[C@H]2CO3)cc2c1c(=O)n(-c1cncc(C#N)c1)c(=O)n2-c1ccc(F)c(Cl)c1 [Compound I-0940] | 1.7 | – | EC50 [2, 5]: 5.66 nM
CNC(=O)[C@@H]1CCN(c2cc3c(c(OC)n2)c(=O)n(-c2cnc4cc(F)ccn24)c(=O)n3-c2ccc(F)c(Cl)c2)C1 [Compound I-1000] | < 100 | < 100 | –
COc1nc(N2CC[C@@H](O)C2)cc2c1c(=O)n(-c1cncc(F)c1)c(=O)n2-c1ccc(F)c(Cl)c1 [Compound I-0965] | < 100 | < 100 | –
COc1nc(N2C[C@@H]3C[C@H]2CO3)cc2c1c(=O)n(-c1cncc(C#N)c1)c(=O)n2-c1ccc(F)c(F)c1 [Compound I-0991] | < 100 | < 100 | –
COc1nc(N2[C@@H]3CC[C@H]2CNC3)cc2c1c(=O)n(-c1cnc3cc(F)ccn13)c(=O)n2Cc1cc(F)c(F)c(F)c1 [Compound I-0682] | – | – | IC50 [1, 6]: < 100 nM; EC50 [2, 7]: < 100 nM
O=c1c2cnc(N3[C@@H]4CC[C@H]3CNC4)cc2n(Cc2cc(F)c(F)c(Cl)c2)c(=O)n1-c1cnc2ccccn12 [Compound I-0547] | – | – | IC50 [1, 6]: < 100 nM; EC50 [2, 7]: < 100 nM
COc1nc(N2[C@@H]3CC[C@H]2CNC3)cc2c1c(=O)n(-c1cnc3ccc(Cl)cn13)c(=O)n2Cc1cc(F)c(F)c(F)c1 [Compound I-0671] | – | – | IC50 [1, 6]: 3.3 nM; EC50 [2]: 21 nM
[2H]C([2H])([2H])O[C@@H]1CCN(c2cc3c(c(OC)n2)c(=O)n(-c2cncc(F)c2)c(=O)n3-c2ccc(F)c(F)c2)C1 [Compound I-1028] | < 100 | < 100 | –
COc1nc(N2CCOCC2)cc2c1c(=O)n(-c1cncc(Cl)c1)c(=O)n2-c1ccc(F)c(Cl)c1 [Compound I-1013] | < 100 | < 100 | –
COc1nc(N2CCC(F)(F)C2)cc2c1c(=O)n(-c1cncc(C#N)c1)c(=O)n2-c1ccc(F)c(F)c1 [Compound I-1057] | < 100 | < 100 | –
N#Cc1ccc(Cl)c(-c2cc3c(c(=O)n(-c4cncc(Cl)c4)c(=O)n3Cc3cc(F)c(F)c(F)c3)c3occc23)c1 [Compound I-0863] | 5.3 | – | EC50 [2, 5]: 52.5 nM
COc1nc(N2CC[C@@H](C#N)C2)cc2c1c(=O)n(-c1cncc(OCF)c1)c(=O)n2-c1ccc(F)c(F)c1 [Compound I-0980] | < 100 | < 100 | –
COc1nc(N2CCC(F)(F)C2)cc2c1c(=O)n(-c1cncc(F)c1)c(=O)n2-c1ccc(F)c(Cl)c1 [Compound I-0998] | < 100 | < 100 | –
Cc1cncc(-n2c(=O)c3c(n(Cc4cc(F)c(F)c(F)c4)c2=O)CN(c2cc(C#N)ccc2Cl)CC3)c1 [Compound I-0658] | 100 to 1000 | 100 to 1000 | –
COc1nc(N2C[C@@H](F)[C@@H](F)C2)cc2c1c(=O)n(-c1cnc3cc(F)ccn13)c(=O)n2-c1ccc(F)c(F)c1 [Compound I-1020] | < 100 | < 100 | –
COc1nc(N2CC[C@@H](F)C2)cc2c1c(=O)n(Cc1ncn(C)n1)c(=O)n2-c1cc(C)c(F)c(Cl)c1 [Compound I-0805] | < 100 | < 100 | –
COc1nc(N2[C@@H]3CC[C@H]2CNC3)cc2c1c(=O)n(-c1cnc3cc(F)c(Cl)cn13)c(=O)n2-c1ccc(F)c(Cl)c1 [Compound I-0950] | – | – | IC50 [1, 6]: < 100 nM; EC50 [2, 7]: < 100 nM
Cn1cnc(Cn2c(=O)c3c4nccnc4c(NC4CC5CC5C4)cc3n(Cc3cc(F)c(F)c(Cl)c3)c2=O)n1 (stereo not drawn) [Compound I-0586] | < 100 | < 100 | –
COc1nc(N2C[C@H]3COC[C@H]3C2)cc2c1c(=O)n(-c1cnc3cc(F)ccn13)c(=O)n2-c1ccc(F)c(Cl)c1 [Compound I-0985] | < 100 | < 100 | –
[2H]C([2H])([2H])O[C@@H]1CCN(c2cc3c(c(OC)n2)c(=O)n(-c2cncc(OCF)c2)c(=O)n3-c2ccc(F)c(Cl)c2)C1 [Compound I-0963] | < 100 | < 100 | –
CC(C)=Cc1cc2c(c(=O)n(Cc3ncn(C)n3)c(=O)n2Cc2cc(F)c(F)c(Cl)c2)c2nccnc12 [Compound I-0572] | 37 | – | EC50 [2, 5]: 28.3 nM
O=c1c2c(=O)n(-c3cnc4cc(F)ccn34)c(=O)n(-c3ccc(F)c(Cl)c3)c2cc2n1CC[C@H]1CCCN21 [Compound I-1051] | < 100 | 100 to 1000 | –
COc1nc(N2[C@@H]3COC[C@H]2C3)cc2c1c(=O)n(-c1cnc3cc(F)ccn13)c(=O)n2-c1ccc(F)c(Cl)c1 [Compound I-0755] | – | – | IC50 [1, 6]: 5.6 nM; EC50 [2]: 7.06 nM

From patent publication US20240400560A1, “BICYCLIC HETEROCYCLIC DERIVATIVE HAVING VIRAL GROWTH INHIBITORY ACTIVITY AND PHARMACEUTICAL COMPOSITION CONTAINING SAME” (Shionogi & Co., Ltd., priority 2021, published 2024)
